Assay: mn = molality of the nth substance listed, in mol/kg
Details: 101.3 kPa, Liquid; for speed of sound: Pulse-echo method

[O-][Cl+3]([O-])([O-])[O-].[O-][Cl+3]([O-])([O-])[O-].[Zn+2] [zinc perchlorate] + CN(C)C=O
Details | mass density, 283.15 K [kg/m3] | mass density, 293.15 K [kg/m3] | mass density, 298.15 K [kg/m3] | mass density, 303.15 K [kg/m3] | mass density, 313.15 K [kg/m3] | mass density, 323.15 K [kg/m3] | mass density, 333.15 K [kg/m3] | speed of sound, 298.15 K [m/s]
m1 = 0.03554 | 965.795 | 956.309 | 951.555 | 946.8 | 937.255 | 927.66 | 918.015 | 1459.9
m1 = 0.04966 | 968.825 | 959.347 | 954.6 | 949.85 | 940.315 | 930.737 | 921.108 | –
m1 = 0.05952 | 970.955 | 961.484 | 956.74 | 951.99 | 942.46 | 932.889 | 923.268 | 1461.7
m1 = 0.06946 | 973.095 | 963.626 | 958.885 | 954.139 | 944.619 | 935.058 | 925.449 | 1462.5
m1 = 0.1039 | 980.554 | 971.105 | 966.376 | 961.642 | 952.143 | 942.607 | 933.036 | 1465
m1 = 0.1369 | 987.781 | 978.348 | 973.626 | 968.9 | 959.426 | 949.918 | 940.371 | 1467.5
m1 = 0.17 | 995.118 | 985.7 | 980.987 | 976.267 | 966.813 | 957.333 | 947.816 | 1469.6
m1 = 0.2038 | 1002.65 | 993.242 | 988.537 | 983.828 | 974.394 | 964.934 | 955.438 | 1472.1
m1 = 0.2374 | 1010.26 | 1000.87 | 996.17 | 991.474 | 982.063 | 972.635 | 963.178 | 1474.7
m1 = 0.2701 | 1017.77 | 1008.39 | 1003.7 | 999.008 | 989.616 | 980.208 | 970.777 | 1477.2
m1 = 0.3002 | 1024.72 | 1015.35 | 1010.66 | 1005.98 | 996.605 | 987.212 | 977.794 | 1479.7
m1 = 0.3314 | 1032.04 | 1022.68 | 1018.01 | 1013.33 | 1003.97 | 994.605 | 985.215 | 1482.1
